Patent publication US7579469B2, “Glucocorticoid mimetics, methods of making them, pharmaceutical compositions, and uses thereof” (Boehringer Ingelheim Pharmaceuticals, Inc., priority 2003, dated 2009)

Assays:
[1] = target: T1, human glucocorticoid receptor (GR) complex (Homo sapiens, UniProt P04150); assay: Glucocorticoid receptor competitive binding assay (fluorescence polarization); conditions: competition with TAMRA-labeled dexamethasone
T1 construct: made in house; host or cells: insect expression system (baculovirus lysate)
T1 sequence (P04150 1-777): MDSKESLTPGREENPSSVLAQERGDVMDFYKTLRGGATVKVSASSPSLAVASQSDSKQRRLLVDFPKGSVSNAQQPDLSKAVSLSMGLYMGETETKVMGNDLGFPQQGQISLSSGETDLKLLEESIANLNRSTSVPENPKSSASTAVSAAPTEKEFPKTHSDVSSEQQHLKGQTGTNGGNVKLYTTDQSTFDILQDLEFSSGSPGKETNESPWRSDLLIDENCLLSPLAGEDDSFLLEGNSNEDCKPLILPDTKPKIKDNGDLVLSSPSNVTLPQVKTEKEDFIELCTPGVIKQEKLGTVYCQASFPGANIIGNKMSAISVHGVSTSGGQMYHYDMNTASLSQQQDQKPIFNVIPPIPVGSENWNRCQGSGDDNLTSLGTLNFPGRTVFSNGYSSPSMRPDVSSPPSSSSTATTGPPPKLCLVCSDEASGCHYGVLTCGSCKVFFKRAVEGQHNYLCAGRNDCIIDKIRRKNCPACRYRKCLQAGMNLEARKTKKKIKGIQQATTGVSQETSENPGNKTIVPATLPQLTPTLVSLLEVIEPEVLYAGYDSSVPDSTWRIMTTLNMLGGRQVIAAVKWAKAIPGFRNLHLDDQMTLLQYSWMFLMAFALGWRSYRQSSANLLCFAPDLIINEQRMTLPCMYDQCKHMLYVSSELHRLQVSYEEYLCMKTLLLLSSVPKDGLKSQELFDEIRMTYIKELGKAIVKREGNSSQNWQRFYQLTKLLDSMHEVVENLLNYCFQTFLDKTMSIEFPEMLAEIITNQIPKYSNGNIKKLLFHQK
Procedure, shortened: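 Fluorescence polarization competition against TAMRA-labelled dexamethasone (50 μL of 15 nM added) for human GR complex from baculovirus insect-cell lysate, diluted 1:170, in TES/KCl/molybdate buffer, pH 7.4.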

[2] = test system: Osteocalcin Production from Osteoblast Cell Line MG-63; assay: Inhibition of osteocalcin production from osteoblast cell line MG-63; assay type: cell-based, human; conditions: MG-63 cells, Vitamin D 10 nM, 48 hours, osteocalcin ELISA
Method: Representative compounds of the invention have been tested and have shown activity as modulators of the glucocorticoid receptor function in one or more of the above assays. […] 7. Inhibition of Osteocalcin Production from Osteoblast Cell Line MG-63
Human osteosarcoma MG-63 cells (ATCC, Cat. No. CRL-1427) are plated on 96 well plates at 20,000 cells per well the day before use in 200 μL media of 99% D-MEM/F-12 (Gibco-Invitrogen, Cat. No. 11039-021), supplemented with 1% penicillin and streptomycin (Gibco-Invitrogen, Cat. No. 15140-122), 10 μg/mL Vitamin C (Sigma, Cat. No. A4544), and 1% charcoal filtered Fetal Bovine Serum (HyClone, Cat. No. SH30068.02). The next day, wells are replaced with fresh media. Cells are treated with Vitamin D (Sigma, Cat. No. D1530) to a final concentration of 10 nM, and with the test compounds in concentrations of 10^−6 M to 10^−9 M, in a total volume of 200 μL per well. Samples are done in duplicates. […] Positive control wells receive Vitamin D only, without compounds, and represent maximum (100%) amount of osteocalcin production. Plates are incubated at 37° C. incubator for 48 hours and supernatants are harvested at the end of incubation. Amounts of osteocalcin in the supernatants are determined by the Glype osteocalcin ELISA kit (Zymed, Cat. No. 99-0054) according to manufacture's protocol. Inhibition of osteocalcin by test compounds is expressed in percentage relative to positive controls. IC50 values of the test compounds are derived by non-lineal curve fitting.

Row | Compound | melting point [°C] | activity in the GR binding assay [1] | inhibit the vitamin D stimulated production of osteocalcin [2]
1 | CC(C)(CC(O)(Cn1ccc(=O)c2ccccc21)C(F)(F)F)c1cc(F)ccc1OC(F)F (centres unmarked) [Example 28, 1-[4-(2-difluoromethoxy-5-fluorophenyl)-2-hydroxy-4-methyl-2-trifluoromethylpentyl]-1H-quinolin-4-one] | 150 to 155 | – | –
2 | COc1ccc(F)cc1C(C)(C)CC(O)(Cn1[nH]c(=O)c2ccccc21)C(F)(F)F (centres unmarked) [Example 23, 1-[4-(5-fluoro-2-methoxyphenyl)-2-hydroxy-4-methyl-2-trifluoromethylpentyl]-1,2-dihydroindazol-3-one] | 141 to 144 | – | –
3 | CC(C)(CC(O)(Cn1ccc(=O)c2ccccc21)C(F)(F)F)c1cc(Br)cc2c1OCC2 (centres unmarked) [1-[4-(5-Bromo-2,3-dihydrobenzofuran-7-yl)-2-hydroxy-4-methyl-2-trifluoromethylpentyl]-1H-quinolin-4-one] | – | potent activity | inhibit
4 | CC(C)(CC(O)(Cn1ccc(=O)c2ccccc21)C(F)(F)F)c1cccc(-c2ccccc2)c1 (centres unmarked) [1-(4-Biphenyl-3-yl-2-hydroxy-4-methyl-2-trifluoromethylpentyl)-1H-quinolin-4-one] | – | – | inhibit
5 | CCOc1ccc(F)cc1C(C)(C)CC(O)(Cn1ccc(=O)c2ccccc21)C(F)(F)F (centres unmarked) [Example 27, 1-[4-(2-ethoxy-5-fluorophenyl)-2-hydroxy-4-methyl-2-trifluoromethylpentyl]-1H-quinolin-4-one] | 195 to 196 | – | –
6 | COc1ccc(F)cc1C(C)(C)CC(O)(Cn1cc(C)c(=O)c2ccccc21)C(F)(F)F (centres unmarked) [Example 26, 1-[4-(5-fluoro-2-methoxyphenyl)-2-hydroxy-4-methyl-2-trifluoromethylpentyl]-3-methyl-1H-quinolin-4-one] | > 225 | – | –
7 | CC(C)(CC(O)(Cn1ccc(=O)c2ccccc21)C(F)(F)F)c1cc(F)ccc1O (centres unmarked) [1-[4-(5-Fluoro-2-hydroxyphenyl)-2-hydroxy-4-methyl-2-trifluoromethylpentyl]-1H-quinolin-4-one] | – | potent activity | inhibit
8 | CC(C)(CC(O)(Cn1ccc(=O)c2ncccc21)C(F)(F)F)c1cc(F)ccc1O (centres unmarked) | – | – | inhibit
9 | CC(C)(CC(O)(Cn1ccc(=O)c2ccc(F)cc21)C(F)(F)F)c1cc(F)ccc1O (centres unmarked) [7-Fluoro-1-[4-(5-fluoro-2-hydroxyphenyl)-2-hydroxy-4-methyl-2-trifluoromethylpentyl]-1H-quinolin-4-one] | – | potent activity | inhibit
10 | CC(C)(CC(O)(Cn1ccc(=O)c2ccccc21)C(F)(F)F)c1cc(S(C)(=O)=O)cc2c1OCC2 (centres unmarked) [1-[2-Hydroxy-4-(5-methanesulfonyl-2,3-dihydrobenzofuran-7-yl)-4-methyl-2-trifluoromethylpentyl]-1H-quinolin-4-one] | – | potent activity | inhibit
